Calls of active or inactive are those of the source.
Tests used:
Mu-type opioid receptor [1] = target: T1, Mu-type opioid receptor (Homo sapiens, UniProt P35372); test: SAR Analysis of Antagonists of the MOR Receptor using an Image-Based Assay - Set 3. [Related pubchem assays (depositor defined):AID1777, AID1785, AID1786, AID1966, AID2133, AID2136, AID2284, AID2285, AID2420]; format: functional
[2] = target: T2, Kappa-type opioid receptor (Homo sapiens, UniProt P41145); test: SAR analysis of Antagonists of the Kappa Opioid Receptor (KOR) using an Image-Based Assay - Set 3. [Related pubchem assays (depositor defined):AID1777, AID1785]; format: functional
T2 sequence (P41145 whole entry): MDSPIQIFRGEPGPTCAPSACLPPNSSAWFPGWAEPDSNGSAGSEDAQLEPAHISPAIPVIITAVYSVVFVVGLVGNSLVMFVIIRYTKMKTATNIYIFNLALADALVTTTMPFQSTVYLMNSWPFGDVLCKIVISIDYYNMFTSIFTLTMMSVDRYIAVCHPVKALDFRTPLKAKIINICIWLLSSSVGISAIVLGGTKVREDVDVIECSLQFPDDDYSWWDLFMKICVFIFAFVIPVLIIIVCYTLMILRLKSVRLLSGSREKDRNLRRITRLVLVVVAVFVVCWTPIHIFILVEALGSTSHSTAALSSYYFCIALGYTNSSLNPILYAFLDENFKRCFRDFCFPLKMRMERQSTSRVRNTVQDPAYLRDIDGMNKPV

[3] = target: T3, Delta-type opioid receptor (Homo sapiens, UniProt P41143); test: SAR Analysis of Antagonists of the DOR Receptor using an Image-Based Assay - Set 3. [Related pubchem assays (depositor defined):AID1777, AID1785]; format: functional
T3 sequence (P41143 whole entry): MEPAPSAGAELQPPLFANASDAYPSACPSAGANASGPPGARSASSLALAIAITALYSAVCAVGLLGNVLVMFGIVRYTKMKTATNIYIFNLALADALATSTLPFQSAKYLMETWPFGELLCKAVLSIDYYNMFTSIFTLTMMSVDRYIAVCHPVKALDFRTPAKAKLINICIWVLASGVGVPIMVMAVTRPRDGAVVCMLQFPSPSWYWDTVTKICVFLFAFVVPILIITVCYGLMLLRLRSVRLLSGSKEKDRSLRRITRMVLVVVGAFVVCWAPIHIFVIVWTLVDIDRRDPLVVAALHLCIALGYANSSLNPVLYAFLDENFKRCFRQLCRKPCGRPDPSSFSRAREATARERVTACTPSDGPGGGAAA

[4] = target: T2, Kappa-type opioid receptor; test: SAR analysis of small molecule antagonists of the kappa opioid receptor via a luminescent beta-arrestin assay - Set 3. [Related pubchem assays (depositor defined):AID1777, AID1778, AID1785, AID1786, AID1966, AID2133, AID2136, AID2285, AID2495]; format: functional
Mu-type opioid receptor [5] = target: T1, Mu-type opioid receptor; test: HTS Image-Based Screen for Agonists of the MOR Receptor. [Related pubchem assays (depositor defined):AID1777, AID1785, AID1786, AID2133]; format: functional
[6] = target: T2, Kappa-type opioid receptor; format: functional
[7] = target: T2, Kappa-type opioid receptor; format: functional; remark: listed apart in the source
[8] = target: T3, Delta-type opioid receptor; test: HTS Image-Based Screen for Antagonists of the DOR Receptor. [Related pubchem assays (depositor defined):AID1777, AID1785, AID1786, AID2133]; format: functional
[9] = target: T3, Delta-type opioid receptor; test: HTS Image-Based Screen for Agonists of the DOR Receptor. [Related pubchem assays (depositor defined):AID1777, AID1786, AID2133]; format: functional
Beta-galactosidase = Beta-galactosidase (Escherichia coli, UniProt Q8VNN2); format: functional
Beta-galactosidase, sequence (Q8VNN2 whole entry): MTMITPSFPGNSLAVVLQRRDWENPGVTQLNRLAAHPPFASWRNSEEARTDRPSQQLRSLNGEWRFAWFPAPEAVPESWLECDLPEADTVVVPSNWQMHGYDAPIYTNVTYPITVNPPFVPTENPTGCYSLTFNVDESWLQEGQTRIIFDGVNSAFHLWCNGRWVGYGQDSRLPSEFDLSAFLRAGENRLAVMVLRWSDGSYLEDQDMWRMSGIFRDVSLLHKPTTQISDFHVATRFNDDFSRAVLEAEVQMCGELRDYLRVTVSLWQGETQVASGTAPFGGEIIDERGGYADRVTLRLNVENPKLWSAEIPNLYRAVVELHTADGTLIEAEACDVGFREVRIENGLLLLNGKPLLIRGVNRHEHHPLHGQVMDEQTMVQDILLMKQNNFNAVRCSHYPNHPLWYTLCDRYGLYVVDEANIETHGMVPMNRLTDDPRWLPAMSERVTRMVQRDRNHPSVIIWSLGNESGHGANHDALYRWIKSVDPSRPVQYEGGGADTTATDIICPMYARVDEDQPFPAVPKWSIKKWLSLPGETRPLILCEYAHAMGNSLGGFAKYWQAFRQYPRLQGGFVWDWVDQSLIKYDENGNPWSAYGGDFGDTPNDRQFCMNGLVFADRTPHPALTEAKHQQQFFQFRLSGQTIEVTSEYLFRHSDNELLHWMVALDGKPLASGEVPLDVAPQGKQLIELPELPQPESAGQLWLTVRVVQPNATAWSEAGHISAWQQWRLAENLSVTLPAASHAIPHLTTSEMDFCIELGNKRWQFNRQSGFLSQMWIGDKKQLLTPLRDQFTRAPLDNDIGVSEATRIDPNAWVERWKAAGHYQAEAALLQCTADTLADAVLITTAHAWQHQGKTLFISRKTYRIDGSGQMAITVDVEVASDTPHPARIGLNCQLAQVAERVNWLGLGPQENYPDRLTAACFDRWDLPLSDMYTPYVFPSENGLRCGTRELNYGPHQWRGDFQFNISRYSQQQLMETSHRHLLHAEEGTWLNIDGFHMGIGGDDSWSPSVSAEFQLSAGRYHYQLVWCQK

[10] = Vero E6 cell cytotoxicity, dose response, cytotoxicity control for non-replicating M. tuberculosis project, secondary assay (AID 492998); format: functional, VeroE6; details: Vero C1008
[11] = HepG2 cell cytotoxicity, dose response, cytotoxicity control for non-replicating M. tuberculosis project (AID 489018); format: functional; details: Mycobacterium tuberculosis
[12] = THP-1 cell cytotoxicity, dose response, cytotoxicity control for non-replicating M. tuberculosis project (AID 489025); format: functional
[13] = target: T4, Corticotropin-releasing factor receptor 2/Corticotropin-releasing factor-binding protein (Homo sapiens, UniProt P24387+Q13324); test: activators of CRF receptor 2 with binding protein – uHTS hits, confirmation (AID 602473); format: functional; details: read-out: EC50_Mean
T4 sequence (Q13324 whole entry): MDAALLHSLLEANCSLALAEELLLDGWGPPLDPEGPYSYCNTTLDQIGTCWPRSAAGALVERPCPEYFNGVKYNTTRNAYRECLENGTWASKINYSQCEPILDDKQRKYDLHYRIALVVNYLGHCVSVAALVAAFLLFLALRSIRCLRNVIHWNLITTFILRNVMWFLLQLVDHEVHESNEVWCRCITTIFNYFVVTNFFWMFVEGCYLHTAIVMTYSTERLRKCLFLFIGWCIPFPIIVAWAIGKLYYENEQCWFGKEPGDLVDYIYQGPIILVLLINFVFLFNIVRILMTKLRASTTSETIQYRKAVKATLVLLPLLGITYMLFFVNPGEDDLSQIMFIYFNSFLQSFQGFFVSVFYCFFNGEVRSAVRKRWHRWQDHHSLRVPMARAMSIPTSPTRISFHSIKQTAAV
T4 sequence (P24387 whole entry): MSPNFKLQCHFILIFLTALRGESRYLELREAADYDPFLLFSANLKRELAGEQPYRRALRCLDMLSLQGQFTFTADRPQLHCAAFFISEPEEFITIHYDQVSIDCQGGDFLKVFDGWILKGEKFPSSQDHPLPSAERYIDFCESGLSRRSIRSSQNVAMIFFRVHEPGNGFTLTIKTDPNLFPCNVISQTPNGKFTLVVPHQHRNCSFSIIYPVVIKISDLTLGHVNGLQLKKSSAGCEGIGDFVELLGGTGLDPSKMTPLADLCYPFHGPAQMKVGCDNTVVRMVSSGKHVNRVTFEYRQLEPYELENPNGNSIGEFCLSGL

Vero = test: cells; format: functional; details: Chlorocebus sabaeus
Streptococcus = test: Group A Streptococcus viability loss, dose response, counter-screen for streptokinase expression inhibitor project, luminescence, BacTiterGlo (AID 1915); format: functional, organism-based;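 further: potency for reduction of bacterial viability or growth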
cells = format: functional
Streptokinase A = target: T5, Streptokinase A (Streptococcus pyogenes serotype M1, UniProt P10520); test: S. pyogenes streptokinase expression inhibitors, potency, dose response, plasminogen activation absorbance, OD405 (AID 1914); format: functional, Streptococcus pyogenes M1 GAS;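 further: secreted streptokinase activity via plasminogen activation per viability signal from cell pellet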
T5 sequence (P10520 whole entry): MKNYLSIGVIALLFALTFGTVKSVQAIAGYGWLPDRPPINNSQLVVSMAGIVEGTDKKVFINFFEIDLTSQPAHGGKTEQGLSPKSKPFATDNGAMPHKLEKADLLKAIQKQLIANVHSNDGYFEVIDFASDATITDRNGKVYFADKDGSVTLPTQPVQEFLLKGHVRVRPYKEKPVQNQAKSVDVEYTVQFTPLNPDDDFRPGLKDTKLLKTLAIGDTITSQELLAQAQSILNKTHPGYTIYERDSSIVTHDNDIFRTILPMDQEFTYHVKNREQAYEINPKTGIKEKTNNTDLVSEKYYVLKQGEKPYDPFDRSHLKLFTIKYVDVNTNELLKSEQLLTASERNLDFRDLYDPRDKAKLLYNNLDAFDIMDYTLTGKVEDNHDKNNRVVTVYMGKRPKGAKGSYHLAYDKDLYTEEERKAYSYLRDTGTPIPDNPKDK

[14] = system: Streptococcus sp. 'group A'; test: growth inhibition of control SK(-) GAS strain, dose response, counter-screen for streptokinase expression inhibitor project, luminescence, kanamycin, BacTiterGlo, confirmation (AID 1900); format: functional, organism-based
[15] = target: T6, Short transient receptor potential channel 4 (Mus musculus, UniProt Q9QUQ5); test: mouse TRPC4 channel activators, dose response, cell-based, HEK293 TRPC4/mu-opioid, Fluo-4 calcium (AID 434937); format: functional
T6 sequence (Q9QUQ5 whole entry): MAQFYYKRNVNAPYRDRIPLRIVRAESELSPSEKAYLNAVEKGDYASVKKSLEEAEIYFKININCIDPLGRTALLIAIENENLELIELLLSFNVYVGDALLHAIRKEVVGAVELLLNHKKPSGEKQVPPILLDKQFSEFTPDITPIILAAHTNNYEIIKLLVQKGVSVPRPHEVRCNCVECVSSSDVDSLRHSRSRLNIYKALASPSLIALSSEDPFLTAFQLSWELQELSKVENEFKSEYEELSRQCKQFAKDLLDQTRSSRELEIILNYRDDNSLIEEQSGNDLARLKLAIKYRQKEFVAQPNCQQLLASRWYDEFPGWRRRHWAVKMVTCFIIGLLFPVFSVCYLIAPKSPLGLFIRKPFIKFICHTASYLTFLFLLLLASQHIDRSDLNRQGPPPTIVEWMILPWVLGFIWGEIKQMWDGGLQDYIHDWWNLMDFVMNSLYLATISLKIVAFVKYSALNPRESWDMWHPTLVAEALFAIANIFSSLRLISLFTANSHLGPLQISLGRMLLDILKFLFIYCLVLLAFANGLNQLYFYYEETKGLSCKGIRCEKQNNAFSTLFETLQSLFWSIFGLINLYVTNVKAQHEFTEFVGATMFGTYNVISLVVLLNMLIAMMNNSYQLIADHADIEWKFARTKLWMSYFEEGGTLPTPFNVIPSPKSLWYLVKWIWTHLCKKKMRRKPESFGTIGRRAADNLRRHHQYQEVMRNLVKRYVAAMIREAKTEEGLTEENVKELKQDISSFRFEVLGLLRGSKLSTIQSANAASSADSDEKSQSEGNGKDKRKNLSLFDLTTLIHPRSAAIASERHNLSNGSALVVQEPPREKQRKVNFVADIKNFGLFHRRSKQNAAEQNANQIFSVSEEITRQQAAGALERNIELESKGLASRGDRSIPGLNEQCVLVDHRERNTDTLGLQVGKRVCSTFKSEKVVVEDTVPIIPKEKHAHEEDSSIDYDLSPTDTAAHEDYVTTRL

T1 sequence (P35372 whole entry): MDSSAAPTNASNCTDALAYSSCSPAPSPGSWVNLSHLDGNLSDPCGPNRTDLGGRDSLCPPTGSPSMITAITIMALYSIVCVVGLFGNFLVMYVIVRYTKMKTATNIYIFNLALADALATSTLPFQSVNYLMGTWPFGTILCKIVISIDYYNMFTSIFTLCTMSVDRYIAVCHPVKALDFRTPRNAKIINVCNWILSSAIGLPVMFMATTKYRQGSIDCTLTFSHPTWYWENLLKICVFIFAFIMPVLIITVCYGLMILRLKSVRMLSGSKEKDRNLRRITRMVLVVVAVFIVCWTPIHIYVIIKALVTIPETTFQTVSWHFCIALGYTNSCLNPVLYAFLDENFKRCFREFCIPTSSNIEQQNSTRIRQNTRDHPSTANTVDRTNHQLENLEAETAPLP

## Cc1cccc(S(=O)(=O)NCc2ccc(C(=O)NCCN(Cc3ccccc3)C(C)C)cc2)c1
Mu-type opioid receptor [1]
  IC50: 7.99 µM (active)
[2]
  IC50: 0.872 µM (active)
[3]
  IC50: > 32 µM (inactive)
[4]
  IC50: 2.32 µM (active)

## COc1cc2c(c(OC)c1OC)-c1c(cc3c(c1OC)OCO3)C1OC2[C@@H](C)[C@H]1C (some centres undefined)
Mu-type opioid receptor [5]
  EC50: > 32 µM (inactive)
[6]
  IC50: 9.42 µM
[7]
  IC50: 10 µM (active)
[8]
  IC50: > 32 µM (inactive)
[9]
  EC50: > 32 µM (inactive)
Beta-galactosidase
  EC50: > 31.5 µM (inactive)

## COc1ccc(S(=O)(=O)NCc2ccc(C(=O)NCCN(Cc3ccc(Br)cc3)C(C)C)cc2)cc1
Mu-type opioid receptor [1]
  IC50: > 32 µM (inactive)
[2]
  IC50: 1.38 µM (active)
[3]
  IC50: > 32 µM (inactive)
[4]
  IC50: 13.5 µM (inactive)

## CC1(C(=O)NC(=S)NNC(=O)c2ccncc2)CCCCC1
[10]
  CC50: 13.4 µM (active)
[11]
  CC50: > 20 µM (active)
[12]
  CC50: 9 µM (active)
[13]
  EC50: 4.91 µM (active)
Vero
  CC50: > 25 µM (active)
Streptococcus
  EC50: 21.1 µM (active)
cells
  IC50: 1.06 µM (active)
Streptokinase A
  EC50: > 150 µM (not active)
[14]
  EC50: 1.59 µM (active)
[15]
  EC50: 11.9 µM (active)

Source: ChEMBL document CHEMBL1201862, “PubChem BioAssay data set” (2004)
